According to patent US4351337A, “Biodegradable, implantable drug delivery device, and process for preparing and using the same” (Arthur D. Little, Inc., priority 1980, dated 1982):
Entries after “also recorded” stand apart in the source; their conditions may differ.

Experiments:
[1] = Tritium excretion in urine of rats given labelled prednisolone; format: in vivo, rat (female CD); details: for Tritium in urine of rats: group 3, control, s.c. injection 1.0 mg/rat
Description: These implants contained from 0.65 to 2.0 mg of radioactively-labelled prednisolone, depending on the size of the implant rectangle. The implants were sterilized by immersion in alcohol and then rinsed with sterile Earle's Balanced Salt Solution. The devices were implanted subcutaneously into the backs of two groups each of eight female CD rats (Charles River Breeding Laboratories, Inc.). To accomplish the implantations, the dorsal area was shaved, cleaned with alcohol and then a one-half inch incision was made in the skin. The skin was then separated from the muscle tissue and the implant inserted at this site. The incision was then sutured.
Each animal of a third group of four female CD rats from the same source was subcutaneously injected with 0.5 cc of an 0.5% hydroxy propylcellulose solution containing an amount of the same radioactiviely labelled prednisolone approximately equivalent to that contained in the implant devices (i.e., 1 mg prednisolone/rat).
All of the animals were housed in metabolic cages. The radioactivities in the urines collected were measured by the standard procedure of scintillation counting, and from these measurements values of disintegrations per minute (DPM) were calculated. Radioactivities were thus measured every 24 hours for the first four days and then for an additional 72 hour level to complete a week of testing.
The average DPM values obtained for the two groups of implanted rats (average dosage of 1.5 mg/rat) and the one group of control rats (average dosage of 1.0 mg/rat) are given in Table 1. During the first day a number of rats escaped from their cages so that the average figures given are for fewer than the total number of animals in each group.

[2] = Naltrexone saturation in Earle's solution; format: physicochemical; details: Earle's Balanced Salt Solution, 37° C.; read-out: saturation concentration
Description: The resulting implants were evaluated by both in vitro and in vivo techniques. In making the in vitro evaluations the films were measured for weight, thickness, and surface area, and were then rinsed briefly with Earle's Balanced Salt Solution (IX--without phenol red, Grand Island Biological Company). Individual films were placed in stoppered test tubes containing 10 ml of the Earle's solution. The tubes were placed in a shaker water bath at 37° C. and were gently agitated. Drug concentration of the solution was periodically assayed by scintillation counting techniques to permit an evaluation of the in vitro drug-release behavior of the copolymers. (The solutions were replaced sufficiently frequently that the naltrexone concentration remained far below saturation, i.e., below ~460 mg/100 ml).

With C[C@]12C=CC(=O)C=C1CC[C@@H]1[C@@H]2[C@@H](O)C[C@@]2(C)[C@H]1CC[C@]2(O)C(=O)CO [prednisolone] the “Tritium in urine of rats” value ([1]; 0-24 h) was 33,038 DPM, the “Tritium in urine of rats” value ([1]; 24-48 h) was 4,424 DPM and the “Tritium in urine of rats” value ([1]; 48-72 h) was 3,335 DPM. For the same compound, the “Tritium in urine of rats” value ([1]; 72-96 h) was 86 DPM, the “Tritium in urine of rats” value ([1]; 96-168 h, minus values indicate noise) was -248 DPM and the “excretion / drug release in words” value ([1]; implants to one week, control first 24 h and end of fourth day) was “very high excretion rates in the first 24 hours; also recorded: practically no excretion of radioactive material”.
O=C1CC[C@@]2(O)[C@H]3Cc4ccc(O)c5c4[C@@]2(CCN3CC2CC2)[C@H]1O5 [naltrexone] showed a solubility [2] of roughly 4600 µg/mL.
